Results on seven compounds are retold here after PubChem BioAssay AID1918996 (Molecular Pharmacology Branch, DTP, NCI, 2023).

In this assay the test system is 349418-098-R-PDC complex spheroid growth. The assay can be described thus: Anticancer human tumor 349418-098-R-PDC patient-derived lung adenocarcinoma cell line growth inhibition [AhR]. The conditions noted are these: for viability, T/C: stronger effect = lower value. The procedure, abridged:
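Complex tumor spheroids co-cultured with HUVEC and human MSC stroma; AhR antagonists tested in combination with standard-of-care and investigational agents. Top concentration at or near clinical Cmax (else 10 microM), half-log dilutions; growth expressed as percent test/control.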

Where [1] appears, read: curve of first compound, second compound 0.1 µM.
Where [2] appears, read: curve of first compound, second compound 0.316 µM.
The mark [3] stands for this setting: curve of first compound, second compound 1 µM.
Where [4] appears, read: curve of first compound, second compound 3.16 µM.
Where [5] appears, read: curve of first compound, second compound 10 µM.
Setting [6] is: second compound 0.1 µM, first compound 0.00949 µM.
Where [7] appears, read: second compound 0.1 µM, first compound 0.03 µM.
Where [8] appears, read: second compound 0.1 µM, first compound 0.0949 µM.
Where [9] appears, read: second compound 0.1 µM, first compound 0.3 µM.
Setting [10] is: second compound 0.316 µM, first compound 0.00949 µM.
The mark [11] stands for this setting: second compound 0.316 µM, first compound 0.03 µM.
Where [12] appears, read: second compound 0.316 µM, first compound 0.0949 µM.
The mark [13] stands for this setting: second compound 0.316 µM, first compound 0.3 µM.
Where [14] appears, read: second compound 1 µM, first compound 0.00949 µM.
The mark [15] stands for this setting: second compound 1 µM, first compound 0.03 µM.
The mark [16] stands for this setting: second compound 1 µM, first compound 0.0949 µM.
The mark [17] stands for this setting: second compound 1 µM, first compound 0.3 µM.
Where [18] appears, read: second compound 3.16 µM, first compound 0.00949 µM.
Where [19] appears, read: second compound 3.16 µM, first compound 0.03 µM.
Where [20] appears, read: second compound 3.16 µM, first compound 0.0949 µM.
Setting [21] is: second compound 3.16 µM, first compound 0.3 µM.
The mark [22] stands for this setting: second compound 10 µM, first compound 0.00949 µM.
Setting [23] is: second compound 10 µM, first compound 0.03 µM.
Setting [24] is: second compound 10 µM, first compound 0.0949 µM.
[25] abbreviates: second compound 10 µM, first compound 0.3 µM.

Several values for one entry are separate records, joined by “and”; a condition that tells them apart may be missing. Identical values can stand only once.
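Also: spheroids exposed to agents for seven days before luminescence viability read.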
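For viability, T/C in this document: spheroids also contain HUVEC endothelial cells and human MSC stroma.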

What is called IC50 is the concentration that inhibits the measured activity by half. What is called viability, T/C is the result in the treated group divided by that in the control group, in per cent. Take `Nc1ncn(C2CC(O)C(CO)S2)c(=O)n1` (stereo not given) + Cc1ccccc1N=Nc1ccc(NC(=O)c2ccnn2C)c(C)c1: the IC50 came to 90.5 nM under setting [1]; 80.4 nM under setting [2]; 63.9 nM under setting [3]; 109 nM under setting [4]; 56.9 nM under setting [5]. The viability, T/C runs as follows: (second compound 0.1 µM, first compound 0.000949 µM) 116%; (second compound 0.1 µM, first compound 0.003 µM) 87.8%; under setting [6], 83.4%; under setting [7], 59.1%; under setting [8], 60.5%; under setting [9], 28.6%. Moreover, the viability, T/C was 111% (second compound 0.316 µM, first compound 0.000949 µM); 63.5% (second compound 0.316 µM, first compound 0.003 µM); 105% under setting [10]; 70.2% under setting [11]; 47.7% under setting [12]; 26.6% under setting [13]. The viability, T/C is, setting by setting: (second compound 1 µM, first compound 0.000949 µM) 91.5%; (second compound 1 µM, first compound 0.003 µM) 92.7%; under setting [14], 98.7%; under setting [15], 67.5%; under setting [16], 41.4%; under setting [17], 20.8%. Besides, the viability, T/C is 52.2% (second compound 3.16 µM, first compound 0.000949 µM); 72.7% (second compound 3.16 µM, first compound 0.003 µM); 72.2% under setting [18]; 66.2% under setting [19]; 54.5% under setting [20]; 18.1% under setting [21]. The viability, T/C was 73.6% (second compound 10 µM, first compound 0.000949 µM); 67.5% (second compound 10 µM, first compound 0.003 µM); 65.7% under setting [22]; 62.1% under setting [23]; 40.8% under setting [24]; 28.9% under setting [25].

Take `Nc1ncn(C2CC(O)C(CO)S2)c(=O)n1` (stereo not given): the viability, T/C is 97.2% and 92.9% and 82.7% (compound 0.000949 µM); 99.2% and 94.3% and 81.9% (compound 0.003 µM); 96.8% and 87.4% and 85.6% (compound 0.00949 µM); 73.7% and 78.3% and 64.3% (compound 0.03 µM); 51.7% and 54.9% and 55.8% (compound 0.0949 µM); 29% and 31.2% and 26.1% (compound 0.3 µM). Also, the IC50 (curve of compound) was 94.1 nM and 121 nM and 111 nM.

For `Nc1ccccc1NC(=O)c1ccc(CNC(=O)OCc2cccnc2)cc1`, the viability, T/C (compound 0.0316 µM) was 86.3% and 118% and 87.5%; the viability, T/C (compound 0.1 µM) is 77.6% and 98.4% and 82.2%; the viability, T/C (compound 0.316 µM) is 65.7% and 89.3% and 84.6%; the viability, T/C (compound 1 µM) is 48.9% and 69.2% and 44.6%; the viability, T/C (compound 3.16 µM) is 23.7% and 17.8% and 23.1%; the viability, T/C (compound 10 µM) is 5.19% and 7.03% and 7.04%. For the same compound, the IC50 (curve of compound) was 850 nM and 1440 nM and 937 nM.

Take `CCN(c1cc(-c2ccc(CN3CCOCC3)cc2)cc(C(=O)NCc2c(C)cc(C)[nH]c2=O)c1C)C1CCOCC1`: the viability, T/C by setting is: (compound 0.00949 µM) 111% and 107% and 122%; (compound 0.03 µM) 109% and 98.9% and 71.2%; (compound 0.0949 µM) 105% and 81.2% and 91.1%; (compound 0.3 µM) 108% and 64.7% and 101%; (compound 0.949 µM) 99.1% and 66.3% and 69.3%; (compound 3 µM) 94% and 69.9% and 88.5%. The IC50 (curve of compound) is more than 3000 nM.

For `O=C(C=Cn1cnc(-c2cc(C(F)(F)F)cc(C(F)(F)F)c2)n1)NNc1cnccn1`, the viability, T/C by setting is: (compound 0.00949 µM) 101% and 61.6% and 69.8%; (compound 0.03 µM) 59.3% and 45% and 45.2%; (compound 0.0949 µM) 40.3% and 14.9% and 16.5%; (compound 0.3 µM) 12.2% and 12.3% and 7.91%; (compound 0.949 µM) 6.89% and 8.37% and 7.72%; (compound 3 µM) 4.34% and 6.5% and 7.38%. Also, the half-inhibitory concentration (IC50) (curve of compound) was 49.6 nM and 21.1 nM and 24 nM.

With `CCN(c1cc(-c2ccc(CN3CCOCC3)cc2)cc(C(=O)NCc2c(C)cc(C)[nH]c2=O)c1C)C1CCOCC1` + Cc1ccccc1N=Nc1ccc(NC(=O)c2ccnn2C)c(C)c1, the concentration for half-maximal inhibition (IC50) is more than 3000 nM under setting [1]; more than 3000 nM under setting [2]; 1550 nM under setting [3]; 1450 nM under setting [4]; 154 nM under setting [5]. Moreover, the viability, T/C was 68.2% under setting [6]; 97.2% under setting [7]; 67.4% under setting [8]; 56.3% under setting [9]; 86.4% (second compound 0.1 µM, first compound 0.949 µM); 53.1% (second compound 0.1 µM, first compound 3 µM). Also, the viability, T/C under setting [10] was 101%; the viability, T/C under setting [11] is 69.1%; the viability, T/C under setting [12] is 95.9%; the viability, T/C under setting [13] was 72.4%; the viability, T/C (second compound 0.316 µM, first compound 0.949 µM) was 70.4%; the viability, T/C (second compound 0.316 µM, first compound 3 µM) was 64%. Also, the viability, T/C was 87.8% under setting [14]; 121% under setting [15]; 85.5% under setting [16]; 78.3% under setting [17]; 56.5% (second compound 1 µM, first compound 0.949 µM); 42% (second compound 1 µM, first compound 3 µM). Moreover, the viability, T/C reads like this: under setting [18], 76.8%; under setting [19], 68.9%; under setting [20], 75.2%; under setting [21], 59%; (second compound 3.16 µM, first compound 0.949 µM) 55.8%; (second compound 3.16 µM, first compound 3 µM) 42.3%. In addition, the viability, T/C was 59.4% under setting [22]; 71.1% under setting [23]; 54.9% under setting [24]; 38.4% under setting [25]; 49.2% (second compound 10 µM, first compound 0.949 µM); 42.1% (second compound 10 µM, first compound 3 µM).

As to `COc1cc(Nc2ncc3c(n2)-c2ccc(Cl)cc2C(c2c(F)cccc2OC)=NC3)ccc1C(=O)O`, the viability, T/C by setting is: (compound 0.0316 µM) 71.2% and 55.7% and 53.1%; (compound 0.1 µM) 60.4% and 48.7% and 48.4%; (compound 0.316 µM) 35.9% and 24.7% and 26.5%; (compound 1 µM) 47% and 31.1% and 35.9%; (compound 3.16 µM) 43% and 33.3% and 42.7%; (compound 10 µM) 37.2% and 35.5% and 37.6%. Moreover, for the setting “curve of compound”, the IC50 was 184 nM and 52.6 nM and < 31.6 nM.
